Laboratory results taken from patent US20250197658A1, “ANTIOXIDANT STABILIZERS FOR DIRECT FABRICATION OF ORTHODONTIC APPLIANCES” (Align Technology, Inc., priority 2023, published 2025).

Test: Photoinitiator stability: concentrations in recovered resin composition after printing cycles
Format: physicochemical
Conditions: for change of concentration in recovered resin composition: with increasing printing cycles

concentration in recovered resin composition (1 printing cycle) [wt %]	concentration in recovered resin composition (2 printing cycles) [wt %]	concentration in recovered resin composition (4 printing cycles) [wt %]	concentration in recovered resin composition (6 printing cycles) [wt %]	change of concentration in recovered resin composition	Compound
0.0077	0.0063	0.0043	0.0026	decreased	Vitamin E
0.98	1	0.98	0.99	remained constant	Cc1cc(C)c(C(=O)P(=O)(C(=O)c2c(C)cc(C)cc2C)c2ccccc2)c(C)c1 [BAPO, phenylbis(2,4,6-trimethylbenzoyl) phosphine oxide]
